The source of these data is US8198317B2, “Methylenedioxy phenolic compounds and their use to treat disease” (The Ohio State University Research Foundation, priority 2008, dated 2012).

The test system of one assay is SREBP-2. Briefly: SREBP-2 precursor and mature form by western analysis in HepG2 cells. The settings on record: HepG2, 1 hour. Type of assay: cell-based, human. Here is the method: FIG. 5C is a graph showing in vitro time course SREBP2 activation measured by the assessment of the mature form with INV-75 in the cytoplasm of treated cells. HepG2 cells were stimulated with INV-75 (0.1 mM) for four hours and the mature and precursor forms of SREBP2 was measured by western blot analysis. A total of three experiments were performed. *, p<0.01 by ANOVA compared to vehicle. The corresponding western blot is depicted on the right. Time is in hours on the right.
FIG. 5D is a graph showing dose dependent effects of INV-75 on SREBP2 activation assessed with mature form INV-75. HepG2 cells were stimulated with multiple concentrations of INV-75 for 1 hour and the mature and precursor forms of SREBP2 was measured by western blot analysis. A total of three experiments were performed. *, p<0.01 by ANOVA compared to vehicle. Dose of INV-75 is log molar concentration.
A family of transcription factors designated SREBP (sterol regulatory element binding proteins) regulate synthesis of cholesterol and fatty acids. […] The time course with this dose and dose dependence was analyzed. Next we assessed the expression of both precursor and mature form of SREBP-2 in the cytoplasm by western analysis. Both time course and dose dependence of mature form of SREBP-2 was analyzed.

Assay [1] deals with Watanabe Heritable Hyperlipidemic Rabbits (WHHL). Briefly: Blood lipid profile in WHHL rabbits. The class given is in vivo, rabbit. As to conditions: end of treatment. The protocol:
Hypercholesterolemia and oxidative stress occupy an important function in the progress of atherosclerosis. Lipids (cholesterol and LDL) in the blood were evaluated by analyzing the blood samples both at the baseline and the end point measurements. 1 ml of blood from an ear lobe vein was placed into K EDTA tubes at a start of high cholesterol diet and again at the time of sacrifice. All values were expressed as mean±SD. The bar graph of each group for total cholesterol and LDL cholesterol at baseline prior to the initiation of high fat chow, following high fat chow but before intervention and at the end of intervention with INV-75 and control are presented. (FIG. 14 A and FIG. 14B). […] The lack of effect may relate to the genetic model (WHHL) which has extremely high lipid values and a mutation in the LDL receptor. Since INV 75 is believed to function by increasing LDL clearance through an increase in LDL receptor expression, the lack of effect on LDL cholesterol and total cholesterol (major lipoprotein fraction in this model at baseline and in response to high fat chow feeding) is understandable.

Another assay deals with Patients. Description: Treatment of dyslipidemia in diabetic patients (Example 25). As to conditions: oral, 12 months. The class given is in vivo, human. The text has this:
Individuals with Type I and Type II diabetes are at risk for future cardiovascular events such as heart attacks, strokes and kidney disease. These individuals often have abnormalities in lipids such as elevations in triglycerides and VLDL cholesterol. They are on treatments such as hypolipidemic drug therapy such as statins and fibrates (Gemfibrozil or Fenofibrate) to lover cholesterol levels in conjunction with glycemia lowering strategies such as Insulin, PPAR γ agents, Metformin or sulfonylurea therapy. In addition to these treatments they will also receive an acceptable dose of a composition comprising a compound of the present invention in an acceptable carrier orally chronically for durations in excess of 12 months. In one study, (3,4-methylenedioxy phenyl acetate (INV 73); 3,4-methylenedioxy-6-nitrophenol (INV 74); 3,4-methylenedioxy-6-nitrophenyl acetate (INV 75); are administered to these individuals. The patients undergo lipid measurements at baseline and at the end of treatment for a 12 month duration. At the end of 12 months of treatment, there is lowering of VLDL cholesterol and a decrease in triglycerides.

The test system of assay [2] is thoracic aorta of New Zealand White rabbits. Briefly: Myograph experiments on thoracic aortic rings of NZW rabbits. The class given is in vivo, rabbit. The protocol:
Animal Model: 15 male New Zealand White rabbits (Charles River, Mass.) were fed with high fat diet (HFD) (Harlan Teklad rabbit diet with 0.5% cholesterol, TD 87251). After 4 weeks of high fat diet, rabbits were randomized into three different treatment groups, normal control (n=5), lipoic acid (100 mg/kg/day) (n=5), INV 70-65 (100 mg/kg/day) (n=5). These drugs were administered to the animals via their chow by mixing the drugs with the high fat diet. A fixed amount of chow and drugs admixed in the chow were fed to all animals every day after carefully calculating food intake in each rabbit. Drugs were dissolved in 100% ethanol and sprayed onto the diet and kept under vacuum to let ethanol evaporate overnight. Two (2) weeks after drug or control admixed HFD, all rabbits underwent aortic balloon denudation surgeries followed by 12 weeks of continued administration of drug or controls admixed with HFD. FIG. 29 provides an outline of the experimental design.
Rabbits were euthanized by injection of lethal doses of pentobarbital. The thoracic aortas were collected for the myograph studies. Two (2) mm thoracic aortic rings were suspended in individual organ chambers filled with physiological salt solution buffer (sodium chloride, 130 mEq/L; potassium chloride, 4.7 mEq/L; calcium dichloride, 1.6 mEq/L; magnesium sulfate, 1.17 mEq/L; potassium diphosphate, 1.18 mEq/L; sodium bicarbonate, 14.9 mEq/L; EDTA, 0.026 mEq/L; and glucose, 99.1 mg/dL [5.5 mmol/L]; pH, 7.4), aerated continuously with 5% carbon dioxide in oxygen at 37° C. Vessels were allowed to equilibrate for at least 1 hour at a resting tension of 30 mN before being subjected to graded doses of agonists. The vasoconstrictor agonist phenylephrine (PE) was used and responses were expressed as a percentage of the peak response to 120 mEq/L of potassium chloride. The vessels subjected to PE were washed thoroughly and allowed to equilibrate for 1 hour before beginning experiments with acetylcholine or sodium nitroprusside (SNP). […] Results for the vasodilators were expressed as a percentage of pre-contraction by PE (0.1 μM).

The mark [3] stands for this setting: NZW thoracic aorta, end of 12 weeks.
Where [4] appears, read: NZW thoracic aorta, end of 12 weeks, % of pre-contraction by PE.

For `CC(=O)Oc1cc2c(cc1[N+](=O)[O-])OCO2` [INV-75, 3,4-methylenedioxy-6-nitrophenyl acetate], in the assay on SREBP-2, the “dose having an effect in increasing the mature form of SREBP-2” value is no less than 10 nM. Besides, in assay [1], the LDL cholesterol entry is given as “no differences” and the total cholesterol result is given as “no differences”. In the assay with Patients, the VLDL cholesterol entry was “lowering” and the triglycerides result was “decrease”.

As to `O=C(CCCCC1CCSS1)Oc1ccc2c(c1)OCO2` (stereo not shown) [INV-7065, 3,4-Methylenedioxy phenyl lipoate], in assay [2] (setting [3]), the “Ach LogEC50” value was −6.67 ± 0.16 M, the “PE LogEC50” value was −6.28 ± 0.08 M and the “SNP-1 LogEC50” value was −7.09 ± 0.16 M. The “PE Maximum Effect” value in assay [2] (NZW thoracic aorta, end of 12 weeks, % of peak response to KCl) is 109.1 ± 4.78 %. In assay [2] (setting [4]), the “Ach Maximum Effect” value is −29.84 ± 2.09 %, the “Insulin Maximum Effect” value was −132.5 ± 14.59 % and the “SNP-1 Maximum Effect” value is given as −83.06 ± 4.95%. Besides, in assay [2] (NZW, in words), the “effect on Insulin EC50 doses” value is given as “no effect”, the “improving response to acetylcholine when compared to control” value was “no different than lipoic acid”, the “relaxation to peak doses of Insulin compared to lipoic acid” value is “improved” and the “vascular contractility to alpha receptor agonist” value is on record as “decreases”.
